Source: BigSolDB 2.1

COC(=O)c1ccccc1S(N)(=O)=O
Conditions | solubility (mole fraction)
in 2-butanone, 273.15 K | 0.028
in 2-butanone, 278.15 K | 0.0329
in 2-butanone, 283.15 K | 0.0385
in 2-butanone, 287.95 K | 0.0446
in 2-butanone, 293.85 K | 0.0529
in 2-butanone, 298.75 K | 0.0609
in 2-butanone, 303.45 K | 0.0691
in 2-butanone, 308.15 K | 0.0784
in 2-butanone, 313.85 K | 0.0907
in 2-butanone, 318.65 K | 0.102
in 2-butanone, 324.15 K | 0.117
in 2-pentanone, 273.15 K | 0.0185
in 2-pentanone, 278.15 K | 0.0218
in 2-pentanone, 283.15 K | 0.0256
in 2-pentanone, 287.95 K | 0.0298
in 2-pentanone, 293.85 K | 0.0355
in 2-pentanone, 298.75 K | 0.0409
in 2-pentanone, 303.45 K | 0.0466
in 2-pentanone, 308.15 K | 0.053
in 2-pentanone, 313.85 K | 0.0617
in 2-pentanone, 318.65 K | 0.0695
in 2-pentanone, 324.15 K | 0.0797
in acetone, 273.15 K | 0.0414
in acetone, 278.15 K | 0.0483
in acetone, 283.15 K | 0.0561
in acetone, 287.95 K | 0.0643
in acetone, 293.85 K | 0.0757
in acetone, 298.75 K | 0.0863
in acetone, 303.45 K | 0.0976
in acetone, 308.15 K | 0.11
in acetone, 313.85 K | 0.126
in acetone, 318.65 K | 0.141
in acetone, 324.15 K | 0.16
in acetonitrile, 273.15 K | 0.0188
in acetonitrile, 278.15 K | 0.0231
in acetonitrile, 283.15 K | 0.0282
in acetonitrile, 287.95 K | 0.0339
in acetonitrile, 293.85 K | 0.0423
in acetonitrile, 298.75 K | 0.0504
in acetonitrile, 303.45 K | 0.0594
in acetonitrile, 308.15 K | 0.0695
in acetonitrile, 313.85 K | 0.0835
in acetonitrile, 318.65 K | 0.0975
in acetonitrile, 324.15 K | 0.115
in cyclopentanone, 273.15 K | 0.0537
in cyclopentanone, 278.15 K | 0.0616
in cyclopentanone, 283.15 K | 0.0704
in cyclopentanone, 287.95 K | 0.0795
in cyclopentanone, 293.85 K | 0.092
in cyclopentanone, 298.75 K | 0.103
in cyclopentanone, 303.45 K | 0.115
in cyclopentanone, 308.15 K | 0.128
in cyclopentanone, 313.85 K | 0.145
in cyclopentanone, 318.65 K | 0.16
in cyclopentanone, 324.15 K | 0.179
in ethanol, 272.15 K | 0.00172
in ethanol, 278.75 K | 0.00252
in ethanol, 283.15 K | 0.00322
in ethanol, 288.15 K | 0.0042
in ethanol, 293.05 K | 0.0054
in ethanol, 298.05 K | 0.00692
in ethanol, 303.15 K | 0.00887
in ethanol, 308.05 K | 0.0112
in ethanol, 312.15 K | 0.0134
in ethanol, 318.15 K | 0.0175
in ethanol, 324.15 K | 0.0226
in ethyl acetate, 273.15 K | 0.0112
in ethyl acetate, 278.15 K | 0.0135
in ethyl acetate, 283.15 K | 0.0162
in ethyl acetate, 287.95 K | 0.0192
in ethyl acetate, 293.85 K | 0.0236
in ethyl acetate, 298.75 K | 0.0278
in ethyl acetate, 303.45 K | 0.0323
in ethyl acetate, 308.15 K | 0.0373
in ethyl acetate, 313.85 K | 0.0444
in ethyl acetate, 318.65 K | 0.0509
in ethyl acetate, 324.15 K | 0.0596
in ethyl formate, 273.15 K | 0.00969
in ethyl formate, 278.15 K | 0.0119
in ethyl formate, 283.15 K | 0.0145
in ethyl formate, 287.95 K | 0.0174
in ethyl formate, 293.85 K | 0.0215
in ethyl formate, 298.75 K | 0.0256
in ethyl formate, 303.45 K | 0.03
in ethyl formate, 308.15 K | 0.0351
in ethyl formate, 313.85 K | 0.0421
in ethyl formate, 318.65 K | 0.049
in ethyl formate, 324.15 K | 0.0578
in isobutanol, 272.15 K | 0.000673
in isobutanol, 278.75 K | 0.001
in isobutanol, 283.15 K | 0.00129
in isobutanol, 288.15 K | 0.00171
in isobutanol, 293.05 K | 0.00224
in isobutanol, 298.05 K | 0.00291
in isobutanol, 303.15 K | 0.00378
in isobutanol, 308.05 K | 0.00479
in isobutanol, 312.15 K | 0.00586
in isobutanol, 318.15 K | 0.00775
in isobutanol, 324.15 K | 0.0101
in isopentanol, 272.15 K | 0.000712
in isopentanol, 278.75 K | 0.00105
in isopentanol, 283.15 K | 0.00135
in isopentanol, 288.15 K | 0.00177
in isopentanol, 293.05 K | 0.00229
in isopentanol, 298.05 K | 0.00296
in isopentanol, 303.15 K | 0.00381
in isopentanol, 308.05 K | 0.00483
in isopentanol, 312.15 K | 0.00586
in isopentanol, 318.15 K | 0.00764
in isopentanol, 324.15 K | 0.00989
in isopropanol, 272.15 K | 0.000871
in isopropanol, 278.75 K | 0.00134
in isopropanol, 283.15 K | 0.00176
in isopropanol, 288.15 K | 0.00239
in isopropanol, 293.05 K | 0.00317
in isopropanol, 298.05 K | 0.00422
in isopropanol, 303.15 K | 0.00557
in isopropanol, 308.05 K | 0.00726
in isopropanol, 312.15 K | 0.00894
in isopropanol, 318.15 K | 0.0121
in isopropanol, 324.15 K | 0.0161
in methanol, 272.15 K | 0.00311
in methanol, 278.75 K | 0.00462
in methanol, 283.15 K | 0.00595
in methanol, 288.15 K | 0.00788
in methanol, 293.05 K | 0.0102
in methanol, 298.05 K | 0.0133
in methanol, 303.15 K | 0.0171
in methanol, 308.05 K | 0.0217
in methanol, 312.15 K | 0.0264
in methanol, 318.15 K | 0.0348
in methanol, 324.15 K | 0.0454
in methyl acetate, 273.15 K | 0.0162
in methyl acetate, 278.15 K | 0.0196
in methyl acetate, 283.15 K | 0.0235
in methyl acetate, 287.95 K | 0.0279
in methyl acetate, 293.85 K | 0.0341
in methyl acetate, 298.75 K | 0.04
in methyl acetate, 303.45 K | 0.0465
in methyl acetate, 308.15 K | 0.0537
in methyl acetate, 313.85 K | 0.0637
in methyl acetate, 318.65 K | 0.0731
in methyl acetate, 324.15 K | 0.0851
in n-butanol, 272.15 K | 0.00092
in n-butanol, 278.75 K | 0.00137
in n-butanol, 283.15 K | 0.00177
in n-butanol, 288.15 K | 0.00234
in n-butanol, 293.05 K | 0.00307
in n-butanol, 298.05 K | 0.004
in n-butanol, 303.15 K | 0.00518
in n-butanol, 308.05 K | 0.00659
in n-butanol, 312.15 K | 0.00801
in n-butanol, 318.15 K | 0.0106
in n-butanol, 324.15 K | 0.0139
in n-pentanol, 272.15 K | 0.000797
in n-pentanol, 278.75 K | 0.00118
in n-pentanol, 283.15 K | 0.0015
in n-pentanol, 288.15 K | 0.00197
in n-pentanol, 293.05 K | 0.00255
in n-pentanol, 298.05 K | 0.0033
in n-pentanol, 303.15 K | 0.00424
in n-pentanol, 308.05 K | 0.00534
in n-pentanol, 312.15 K | 0.0065
in n-pentanol, 318.15 K | 0.00849
in n-pentanol, 324.15 K | 0.011
in n-propanol, 272.15 K | 0.00106
in n-propanol, 278.75 K | 0.00159
in n-propanol, 283.15 K | 0.00206
in n-propanol, 288.15 K | 0.00274
in n-propanol, 293.05 K | 0.00357
in n-propanol, 298.05 K | 0.00469
in n-propanol, 303.15 K | 0.00609
in n-propanol, 308.05 K | 0.00778
in n-propanol, 312.15 K | 0.00946
in n-propanol, 318.15 K | 0.0125
in n-propanol, 324.15 K | 0.0164
